# Results taken from patent publication USRE48335E1, “Polymyxin derivatives as antimicrobial compounds” (priority 2014, dated 2020).
# Positions of bridges follow the written chain, without caps; N, C: chain ends. Non-standard residues stand in square brackets, D forms with d. Residues, ends and D or L forms follow the SMILES beside them. *: point of attachment. Phenylacetyl(3,4-Cl2) = O=C(Cc1ccc(Cl)c(Cl)c1)*; Phenylacetyl(4-Me) = Cc1ccc(CC(=O)*)cc1; X24 = Cc1ccc(C(=O)*)c(C)c1; X25 = Cc1cccc(C(=O)*)c1C; Dab = NCC[C@H](N)C(=O)O; X33 = Cc1cccc(C(=O)*)c1; X39 = O=C(Cc1ccccc1Cl)*; X43 = O=C(c1cccc(F)c1)*; Abu = CC[C@H](N)C(=O)O; Dap = NC[C@H](N)C(=O)O; X34 = Cc1ccccc1CC(=O)*; X35 = O=C(Cc1ccccc1F)*; X44 = O=C(c1ccccc1Cl)*; X27 = Cc1ccccc1C(=O)*; X40 = O=C(c1ccccc1F)*
# Columns and labels:
# Enterobacter cloacae = system: Enterobacter cloacae
# Summary of the method: (§1)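 Lipopeptide TFA salts are serially diluted in cation-adjusted Mueller-Hinton broth and inoculated per the CLSI M100-S18 broth microdilution method. The MIC is then recorded, with polymyxin B sulphate included as a control.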
# Pseudomonas aeruginosa = system: Pseudomonas aeruginosa
# Summary of the method: as §1
# Acinetobacter baumannii = system: Acinetobacter baumannii
# Summary of the method: as §1
SMILES,"Minimum inhibitory concentration, Ec FADDI-EC001 (Enterobacter cloacae) [µg/mL]","Minimum inhibitory concentration, Ec FADDI-EC003 (Enterobacter cloacae) [µg/mL]","Minimum inhibitory concentration, Ec FADDI-EC006 (Enterobacter cloacae) [µg/mL]","Minimum inhibitory concentration, Pa ATCC 27853 (Pseudomonas aeruginosa) [µg/mL]","Minimum inhibitory concentration, Pa FADDI-PA022 (Pseudomonas aeruginosa) [µg/mL]","Minimum inhibitory concentration, Pa FADDI-PA025 (Pseudomonas aeruginosa) [µg/mL]","Minimum inhibitory concentration, Ab A ATCC 17978 (Acinetobacter baumannii) [µg/mL]","Minimum inhibitory concentration, Ab ATCC 19606 (Acinetobacter baumannii) [µg/mL]","Minimum inhibitory concentration, Ab FADDI-AB034 (Acinetobacter baumannii) [µg/mL]"
CC[C@@H]1NC(=O)[C@@H](CC(C)C)NC(=O)[C@H](CCN)NC(=O)[C@@H](NC(=O)[C@H](CN)NC(=O)[C@@H](NC(=O)[C@H](CCN)NC(=O)c2ccccc2Cl)[C@@H](C)O)CCNC(=O)[C@H]([C@@H](C)O)NC(=O)[C@H](CCN)NC(=O)[C@H](CCN)NC1=O [Compound 72] (X44-[Dab]T[Dap][Dab][Dab][dL][Abu][Dab][Dab]T; lactam 4-C),0.5,0.25,0.5,0.5,0.5,4,4,8,4
CC[C@@H]1NC(=O)[C@@H](CC(C)C)NC(=O)[C@H](CCN)NC(=O)[C@@H](NC(=O)[C@H](CN)NC(=O)[C@@H](NC(=O)[C@H](CCN)NC(=O)c2ccccc2F)[C@@H](C)O)CCNC(=O)[C@H]([C@@H](C)O)NC(=O)[C@H](CCN)NC(=O)[C@H](CCN)NC1=O [Compound 73] (X40-[Dab]T[Dap][Dab][Dab][dL][Abu][Dab][Dab]T; lactam 4-C),0.25,0.25,1,0.5,1,4,4,8,4
CC[C@@H]1NC(=O)[C@@H](CC(C)C)NC(=O)[C@H](CCN)NC(=O)[C@@H](NC(=O)[C@H](CN)NC(=O)[C@@H](NC(=O)[C@H](CCN)NC(=O)c2ccccc2C)[C@@H](C)O)CCNC(=O)[C@H]([C@@H](C)O)NC(=O)[C@H](CCN)NC(=O)[C@H](CCN)NC1=O [Compound 75] (X27-[Dab]T[Dap][Dab][Dab][dL][Abu][Dab][Dab]T; lactam 4-C),0.25,0.25,0.5,0.5,1,2,1,1,1
CC[C@@H]1NC(=O)[C@@H](CC(C)C)NC(=O)[C@H](CCN)NC(=O)[C@@H](NC(=O)[C@H](CN)NC(=O)[C@@H](NC(=O)[C@H](CCN)NC(=O)Cc2ccccc2C)[C@@H](C)O)CCNC(=O)[C@H]([C@@H](C)O)NC(=O)[C@H](CCN)NC(=O)[C@H](CCN)NC1=O [Compound 76] (X34-[Dab]T[Dap][Dab][Dab][dL][Abu][Dab][Dab]T; lactam 4-C),0.25,0.25,0.5,0.5,1,4,1,2,1
CC[C@@H]1NC(=O)[C@@H](CC(C)C)NC(=O)[C@H](CCN)NC(=O)[C@@H](NC(=O)[C@H](CN)NC(=O)[C@@H](NC(=O)[C@H](CCN)NC(=O)Cc2ccc(C)cc2)[C@@H](C)O)CCNC(=O)[C@H]([C@@H](C)O)NC(=O)[C@H](CCN)NC(=O)[C@H](CCN)NC1=O [Compound 80] ({Phenylacetyl(4-Me)}-[Dab]T[Dap][Dab][Dab][dL][Abu][Dab][Dab]T; lactam 4-C),<0.125,0.25,4,0.5,1,2,1,4,2
"CC[C@@H]1NC(=O)[C@@H](CC(C)C)NC(=O)[C@H](CCN)NC(=O)[C@@H](NC(=O)[C@H](CN)NC(=O)[C@@H](NC(=O)[C@H](CCN)NC(=O)Cc2ccc(Cl)c(Cl)c2)[C@@H](C)O)CCNC(=O)[C@H]([C@@H](C)O)NC(=O)[C@H](CCN)NC(=O)[C@H](CCN)NC1=O [Compound 81] ({Phenylacetyl(3,4-Cl2)}-[Dab]T[Dap][Dab][Dab][dL][Abu][Dab][Dab]T; lactam 4-C)",0.25,<0.125,0.25,2,4,1,0.5,1,0.25
CC[C@@H]1NC(=O)[C@@H](CC(C)C)NC(=O)[C@H](CCN)NC(=O)[C@@H](NC(=O)[C@H](CN)NC(=O)[C@@H](NC(=O)[C@H](CCN)NC(=O)Cc2ccccc2Cl)[C@@H](C)O)CCNC(=O)[C@H]([C@@H](C)O)NC(=O)[C@H](CCN)NC(=O)[C@H](CCN)NC1=O [Compound 84] (X39-[Dab]T[Dap][Dab][Dab][dL][Abu][Dab][Dab]T; lactam 4-C),<0.125,0.25,0.5,0.5,2,2,2,8,2
CC[C@@H]1NC(=O)[C@@H](CC(C)C)NC(=O)[C@H](CCN)NC(=O)[C@@H](NC(=O)[C@H](CN)NC(=O)[C@@H](NC(=O)[C@H](CCN)NC(=O)Cc2ccccc2F)[C@@H](C)O)CCNC(=O)[C@H]([C@@H](C)O)NC(=O)[C@H](CCN)NC(=O)[C@H](CCN)NC1=O [Compound 85] (X35-[Dab]T[Dap][Dab][Dab][dL][Abu][Dab][Dab]T; lactam 4-C),0.5,1,1,0.5,2,2,2,4,2
CC[C@@H]1NC(=O)[C@@H](CC(C)C)NC(=O)[C@H](CCN)NC(=O)[C@@H](NC(=O)[C@H](CN)NC(=O)[C@@H](NC(=O)[C@H](CCN)NC(=O)c2cccc(F)c2)[C@@H](C)O)CCNC(=O)[C@H]([C@@H](C)O)NC(=O)[C@H](CCN)NC(=O)[C@H](CCN)NC1=O [Compound 86] (X43-[Dab]T[Dap][Dab][Dab][dL][Abu][Dab][Dab]T; lactam 4-C),1,1,1,0.5,1,2,2,4,1
CC[C@@H]1NC(=O)[C@@H](CC(C)C)NC(=O)[C@H](CCN)NC(=O)[C@@H](NC(=O)[C@H](CN)NC(=O)[C@@H](NC(=O)[C@H](CCN)NC(=O)c2cccc(C)c2)[C@@H](C)O)CCNC(=O)[C@H]([C@@H](C)O)NC(=O)[C@H](CCN)NC(=O)[C@H](CCN)NC1=O [Compound 87] (X33-[Dab]T[Dap][Dab][Dab][dL][Abu][Dab][Dab]T; lactam 4-C),2,1,2,0.5,1,2,1,2,2
CC[C@@H]1NC(=O)[C@@H](CC(C)C)NC(=O)[C@H](CCN)NC(=O)[C@@H](NC(=O)[C@H](CN)NC(=O)[C@@H](NC(=O)[C@H](CCN)NC(=O)c2ccc(C)cc2C)[C@@H](C)O)CCNC(=O)[C@H]([C@@H](C)O)NC(=O)[C@H](CCN)NC(=O)[C@H](CCN)NC1=O [Compound 89] (X24-[Dab]T[Dap][Dab][Dab][dL][Abu][Dab][Dab]T; lactam 4-C),<0.125,<0.125,2,0.5,1,4,1,4,1
CC[C@@H]1NC(=O)[C@@H](CC(C)C)NC(=O)[C@H](CCN)NC(=O)[C@@H](NC(=O)[C@H](CN)NC(=O)[C@@H](NC(=O)[C@H](CCN)NC(=O)c2cccc(C)c2C)[C@@H](C)O)CCNC(=O)[C@H]([C@@H](C)O)NC(=O)[C@H](CCN)NC(=O)[C@H](CCN)NC1=O [Compound 91] (X25-[Dab]T[Dap][Dab][Dab][dL][Abu][Dab][Dab]T; lactam 4-C),<0.125,<0.125,0.5,0.5,2,4,1,4,2
